Experimental data as given in US20230373985A1 (Origenis Gmbh, priority 2020, published 2023).

How the values were obtained:
[1] = target: T1, wt human JAK1, catalytic site (Homo sapiens, UniProt P23458); assay: HTRF KinEASE assay, JAK1; assay type: biochemical; conditions: 2.5 μM ATP; read-out: IC50, Activity Toward JAK1
T1 construct: wt human JAK1, catalytic site; purchased ThermoFisher
Procedure: Basic protocol for HTRF KinEASE assay (Cisbio/FRA) inhibitor studies involved two steps: • Enzymatic step: Addition of 4 μL of test compound in corresponding DMSO dilutions, 4 μL of kinase/substrate mixture, 2 μL of ATP into 384 well small volume plates. Incubation for at least 30 minutes at room temperature. • Detection step: Addition of 5 μL antibody and 5 μL streptavidin-XL665, read plate after 60 minutes. Data analysis of emission ratios according KinEASE assay protocol.
(§1) Kinase and assay components were adjusted to final concentrations according to kit protocol. For TYK2: 2 nM wt human TYK2, catalytic site (SignalChem/CAN), 1 μM HTRF KinEASE-TK Substrate-biotin, 1 μM ATP in 1× Kinase Buffer. […] For JAK2: 1 nM wt human JAK2, catalytic site (SignalChem/CAN), 1 μM HTRF KinEASE-TK Substrate-biotin, 100 μM ATP in 1× Kinase Buffer.
as §1

[2] = target: T2, wt human TYK2, catalytic site (Homo sapiens, UniProt P29597); assay: HTRF KinEASE assay, TYK2; assay type: biochemical; conditions: 1 μM ATP; read-out: IC50, Activity Toward TYK2
T2 construct: wt human TYK2, catalytic site; purchased SignalChem
T2 sequence (P29597 897-1176 limits assumed): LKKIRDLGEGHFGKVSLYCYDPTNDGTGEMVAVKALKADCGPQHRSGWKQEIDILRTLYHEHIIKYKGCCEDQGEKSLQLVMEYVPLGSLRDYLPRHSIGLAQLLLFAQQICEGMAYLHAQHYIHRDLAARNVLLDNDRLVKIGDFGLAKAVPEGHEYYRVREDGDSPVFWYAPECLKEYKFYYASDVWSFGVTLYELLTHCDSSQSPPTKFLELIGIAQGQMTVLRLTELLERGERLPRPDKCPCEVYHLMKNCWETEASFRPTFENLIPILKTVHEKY
Method in brief: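 Kinase reaction run at room temperature for at least 30 min: 2 nM TYK2 with 1 μM ATP, or 1 nM JAK2 with 100 μM ATP, each with 1 μM biotin-TK substrate. Phosphorylation detected by HTRF (60 min antibody/XL665) and evaluated from emission ratios.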

T1 sequence (P23458 875-1153 limits assumed): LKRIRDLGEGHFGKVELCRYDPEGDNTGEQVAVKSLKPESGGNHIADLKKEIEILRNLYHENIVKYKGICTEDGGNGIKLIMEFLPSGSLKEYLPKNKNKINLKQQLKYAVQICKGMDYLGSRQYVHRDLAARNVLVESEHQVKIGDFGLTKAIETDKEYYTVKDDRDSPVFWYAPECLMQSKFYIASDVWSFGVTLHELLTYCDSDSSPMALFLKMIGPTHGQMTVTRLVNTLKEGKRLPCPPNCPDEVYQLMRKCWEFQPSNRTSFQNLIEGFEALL

| Compound | IC50 [1] [nM] | IC50 [2] [nM] |
| --- | --- | --- |
| NC(=O)c1nn(-c2c(Cl)cccc2Cl)cc1Nc1ccc(-c2nnc3cncc(Cl)n23)nc1 [compound 447, 4-((6-(5-chloro-[1,2,4]triazolo[4,3-a]pyrazin-3-yl)pyridin-3-yl)amino)-1-(2,6-dichlorophenyl)-1H-pyrazole-3-carboxamide] | 10 to 100 | 10 to 100 |
| NC(=O)c1nn(-c2c(Cl)cccc2Cl)nc1Nc1ccc(-c2nc(C(F)(F)F)cn2CCO)cc1 [compound 112, 2-(2,6-dichlorophenyl)-5-((4-(1-(2-hydroxyethyl)-4-(trifluoromethyl)-1H-imidazol-2-yl)phenyl)amino)-2H-1,2,3-triazole-4-carboxamide] | < 10 | < 10 |
| CC(C)c1nnnn1-c1ccc(Nc2cn(-c3c(Cl)cccc3Cl)nc2C(N)=O)cn1 [compound 393, 1-(2,6-dichlorophenyl)-4-((6-(5-isopropyl-1H-tetrazol-1-yl)pyridin-3-yl)amino)-1H-pyrazole-3-carboxamide] | 100 to 1000 | 100 to 1000 |
| NC(=O)c1nn(-c2c(Cl)cc(F)cc2Cl)cc1Nc1ccc(C(=O)N2CCOCC2)cc1 [compound 412, 1-(2,6-dichloro-4-fluorophenyl)-4-((4-(morpholine-4-carbonyl)phenyl)amino)-1H-pyrazole-3-carboxamide] | 10 to 100 | 10 to 100 |
| CS(=O)(=O)Nc1ccc(Nc2cn(-c3c(Cl)cccc3Cl)nc2C(N)=O)cc1 [compound 271, 1-(2,6-dichlorophenyl)-4-((4-(methylsulfonamido)phenyl)amino)-1H-pyrazole-3-carboxamide] | 10 to 100 | 10 to 100 |
| CCc1cnnn1-c1ccc(Nc2cn(-c3c(Cl)cccc3Cl)nc2C(N)=O)cc1 [compound 411, 1-(2,6-dichlorophenyl)-4-((4-(5-ethyl-1H-1,2,3-triazol-1-yl)phenyl)amino)-1H-pyrazole-3-carboxamide] | 10 to 100 | < 10 |
| N#CC1CN(C(=O)c2ccc(Nc3cn(-c4c(Cl)cccc4Cl)nc3C(N)=O)nc2)C1 [compound 444, 4-((5-(3-cyanoazetidine-1-carbonyl)pyridin-2-yl)amino)-1-(2,6-dichlorophenyl)-1H-pyrazole-3-carboxamide] | 10 to 100 | 10 to 100 |
| Cc1cnn(-c2ccc(Nc3cn(-c4c(Cl)cccc4Cl)nc3C(N)=O)cc2)c1C [compound 218, 1-(2,6-dichlorophenyl)-4-((4-(4,5-dimethyl-1H-pyrazol-1-yl)phenyl)amino)-1H-pyrazole-3-carboxamide] | 100 to 1000 | 100 to 1000 |
| Cn1c(-c2ccc(Nc3cn(-c4c(Cl)cccc4Cl)nc3C(N)=O)cc2)nnc1C(F)(F)F [compound 242, 1-(2,6-dichlorophenyl)-4-((4-(4-methyl-5-(trifluoromethyl)-4H-1,2,4-triazol-3-yl)phenyl)amino)-1H-pyrazole-3-carboxamide] | 10 to 100 | 10 to 100 |
| Cc1nc(C(F)(F)F)nn1-c1ccc(Nc2cn(-c3c(Cl)cccc3Cl)nc2C(N)=O)cc1 [compound 275, 1-(2,6-dichlorophenyl)-4-((4-(5-methyl-3-(trifluoromethyl)-1H-1,2,4-triazol-1-yl)phenyl)amino)-1H-pyrazole-3-carboxamide] | 10 to 100 | < 10 |
| Cc1cccc2nnc(-c3ccc(Nc4nn(-c5c(Cl)cccc5Cl)nc4C(N)=O)cn3)n12 [compound 139, 2-(2,6-dichlorophenyl)-5-((6-(5-methyl-[1,2,4]triazolo[4,3-a]pyridin-3-yl)pyridin-3-yl)amino)-2H-1,2,3-triazole-4-carboxamide] | 10 to 100 | 100 to 1000 |
| CC(C)c1ccn(-c2ccc(Nc3cn(-c4c(Cl)cccc4Cl)nc3C(N)=O)cc2)n1 [compound 263, 1-(2,6-dichlorophenyl)-4-((4-(3-isopropyl-1H-pyrazol-1-yl)phenyl)amino)-1H-pyrazole-3-carboxamide] | 100 to 1000 | 100 to 1000 |
